Measured values reported in US20240010681A1, “PEPTIDES AND METHODS OF USE” (REALTA LIFE SCIENCES, INC., priority 2020, published 2024).

Experiments:
[1] = test system: human umbilical vascular endothelial cell (HUVEC); assay: HUVEC 3-dimensional culture, LPS-stimulated non-VEGF mediated angiogenesis; conditions: increasing amounts of peptide; 10 ug/ml LPS; 18 hours
[2] = IV 200 mg/ml (800 mg/kg)
[3] = 1 hour after IVT injection; compared to saline
MPO = assay: OVA/LPS rat asthma model, MPO in BALF (colorimetric); conditions: vs Day 24 asthma animals
mCH50 = mCH50 ex vivo on plasma of two-hit ALI rats; assay type: in vivo, rat; conditions: 10 mg/kg IV; compared with saline treated control
ICAM-1/CD54 = ICAM-1/CD54 (Homo sapiens, UniProt P05362); assay: ELISA-type plate binding assay, ICAM-1
ICAM-1/CD54, sequence (P05362 28-532): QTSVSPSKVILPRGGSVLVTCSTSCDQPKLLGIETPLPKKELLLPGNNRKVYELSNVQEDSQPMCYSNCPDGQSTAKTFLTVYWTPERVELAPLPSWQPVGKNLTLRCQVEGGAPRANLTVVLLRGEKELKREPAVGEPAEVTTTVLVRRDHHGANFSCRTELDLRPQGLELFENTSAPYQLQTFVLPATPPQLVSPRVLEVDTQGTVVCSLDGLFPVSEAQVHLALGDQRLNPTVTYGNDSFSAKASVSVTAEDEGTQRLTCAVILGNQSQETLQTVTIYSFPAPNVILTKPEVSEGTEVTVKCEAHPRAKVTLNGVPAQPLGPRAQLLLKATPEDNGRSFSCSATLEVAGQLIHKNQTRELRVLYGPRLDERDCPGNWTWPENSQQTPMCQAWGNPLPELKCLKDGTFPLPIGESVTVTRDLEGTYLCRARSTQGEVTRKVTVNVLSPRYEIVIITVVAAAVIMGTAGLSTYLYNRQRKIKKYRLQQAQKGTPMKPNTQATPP
Experimental: (§1) To address this hypothesis, an ELISA-type binding assay was developed in which neutrophil ligands (LFA-1 and MAC-1/CR3) and […] cell ligands (ICAM-1/CD54 and ICAM-2/CD102) were bound to microtiter plates. Plates were then incubated with increasing amounts of PA-dPEG24 in 1% gelatin/PBS buffer probed with antibody to the peptide and developed.
(§2) To ascertain if PA-dPEG24 could bind ICAM-1 and LFA-1 in plasma, these receptors were coated onto microtiter plates and then incubated with human plasma containing increasing amounts of PA-dPEG24, probed with antibody to the peptide and then developed.

human neutrophils = assay: Immunofluorescence binding to purified human neutrophils; assay type: cell-based; conditions: 1 mM, 30 minutes
Experimental: To evaluate binding of PA-dPEG24 to neutrophils, purified human neutrophils were cytospun onto glass slides. PA-dPEG24 (1 mM) was then added to one set of slides for 30 minutes and the slides were subsequently washed with PBS. The cells were then incubated with an antibody to PA-dPEG24 (1:1,000 dilution of Chicken Anti-PIC1) followed by a labeled secondary antibody (1:2,000 dilution of Anti-Chicken, Alexa Fluor 488) and counterstained with DAPI. Cells were then visualized by microscopy. In each case, DAPI staining confirmed that the cells were present on the slides and intact.

[4] = test system: classical complement pathway mediated hemolysis; assay: Free hemoglobin in plasma (intravascular hemolysis), two-hit ALI rat model; assay type: in vivo; conditions: 10 mg/kg IV; compared with saline treatment
Experimental: Complement inhibition in the bloodstream of rats in the 2-hit ALI model was measured by two different methods. The first method measured free hemoglobin in the plasma of the rats over time, by measuring intravascular hemolysis of the transfused incompatible erythrocytes.

[5] = test system: VEGF binding to VEGFR-2 (KDR); assay: VEGF Bioassay (Promega), bioluminescent reporter cells; conditions: increasing peptide concentrations, then human VEGF stimulation
free DNA [6] = assay: OVA/LPS rat asthma model, free DNA in BALF (PicoGreen); conditions: prophylactic or rescue 160 mg/kg IV; vs asthma rats Days 22-24; not back to baseline
[7] = test system: human umbilical vascular endothelial cell (HUVEC); assay: HUVEC basement membrane matrix (Geltrex) culture, LPS-stimulated angiogenesis; assay type: cell-based; conditions: no CellTrace dye, compared with 3-dimensional system
Experimental: FIG. 36. […] Cells were applied to a layer of basement membrane matrix containing LPS to stimulate angiogenesis and cultured for 18 hours at 37° C. Angiogenesis (nascent tube formation and sprouting) was observed by light microscopy.

MAC-1/CR3 = MAC-1/CR3 (Homo sapiens, UniProt P05107+P11215); assay: ELISA-type plate binding assay, MAC-1; conditions: 1% gelatin/PBS buffer
MAC-1/CR3, sequence (P05107 23-769, other chains not shown): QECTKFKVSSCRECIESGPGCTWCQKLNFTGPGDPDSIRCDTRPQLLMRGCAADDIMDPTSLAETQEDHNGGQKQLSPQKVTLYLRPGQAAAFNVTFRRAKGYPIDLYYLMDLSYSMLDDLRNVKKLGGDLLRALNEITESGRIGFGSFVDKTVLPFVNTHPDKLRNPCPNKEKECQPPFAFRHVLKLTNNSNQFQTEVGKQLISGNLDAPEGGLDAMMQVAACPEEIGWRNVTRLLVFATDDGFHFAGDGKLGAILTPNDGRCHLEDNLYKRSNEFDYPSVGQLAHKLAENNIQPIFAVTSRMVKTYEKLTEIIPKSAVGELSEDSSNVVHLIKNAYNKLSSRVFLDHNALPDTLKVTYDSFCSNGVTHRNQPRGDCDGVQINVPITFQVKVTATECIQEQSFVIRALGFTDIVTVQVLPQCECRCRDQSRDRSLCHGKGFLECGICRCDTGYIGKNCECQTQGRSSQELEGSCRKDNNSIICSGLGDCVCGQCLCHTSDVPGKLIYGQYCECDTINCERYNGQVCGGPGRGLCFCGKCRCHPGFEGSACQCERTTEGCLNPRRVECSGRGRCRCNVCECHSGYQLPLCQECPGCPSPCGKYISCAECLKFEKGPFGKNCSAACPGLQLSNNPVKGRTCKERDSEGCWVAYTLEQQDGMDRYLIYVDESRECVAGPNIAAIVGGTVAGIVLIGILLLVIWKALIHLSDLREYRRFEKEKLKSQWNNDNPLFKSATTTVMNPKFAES
Experimental: as §1

MPO (myeloperoxidase) = MPO (myeloperoxidase) (Homo sapiens, UniProt P05164); assay: ELISA-type plate binding assay, MPO (positive control ligand); conditions: in human plasma
MPO (myeloperoxidase), sequence (P05164 49-745, species assumed): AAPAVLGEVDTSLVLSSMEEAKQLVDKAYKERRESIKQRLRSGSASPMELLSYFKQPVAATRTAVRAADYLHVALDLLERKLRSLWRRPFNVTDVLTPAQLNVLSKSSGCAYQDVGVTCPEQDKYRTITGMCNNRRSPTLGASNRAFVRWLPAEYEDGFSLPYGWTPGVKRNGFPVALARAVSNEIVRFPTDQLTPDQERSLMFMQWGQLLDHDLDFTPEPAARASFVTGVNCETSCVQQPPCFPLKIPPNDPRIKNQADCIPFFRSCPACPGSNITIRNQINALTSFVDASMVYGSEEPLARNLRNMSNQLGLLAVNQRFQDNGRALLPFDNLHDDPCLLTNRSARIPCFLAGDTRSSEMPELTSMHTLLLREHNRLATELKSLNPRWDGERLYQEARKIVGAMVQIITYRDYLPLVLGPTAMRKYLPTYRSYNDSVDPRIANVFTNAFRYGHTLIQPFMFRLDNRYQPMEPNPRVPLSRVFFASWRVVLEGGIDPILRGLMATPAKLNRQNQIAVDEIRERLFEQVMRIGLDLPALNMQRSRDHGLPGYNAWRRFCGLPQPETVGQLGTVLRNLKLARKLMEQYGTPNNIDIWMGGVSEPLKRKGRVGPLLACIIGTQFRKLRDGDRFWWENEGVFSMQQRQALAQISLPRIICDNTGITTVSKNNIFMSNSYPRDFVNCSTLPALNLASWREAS

C5a = C5a ELISA in plasma, two-hit ALI rat model; assay type: in vivo
Experimental: C5a was then measured in each sample by ELISA and absorbance was read at 450 nm. Two replicates for each animal were measured for every time point. Data are means and standard error of the mean. Statistical analysis was performed using were conducted using bootstrap approach or Welch's ANOVA. * denotes p=0.010, ** denotes p=0.004, *** denotes p=0.002, and **** denotes p≤0.001 compared to 2-hit animals.
Animals receiving the 2-hit insult had substantially more C5a production at the 1-hour time point as expected (FIG. 20).
RLS-0071 was tested in a two-hit rat model of ALI. The first insult is neutrophil stimulation with lipopolysaccharide (LPS) followed 30 minutes later by a second insult of classical complement activation with incompatible erythrocytes. This model can produce dramatic neutrophil infiltration into alveolar walls, thickening the walls and reducing alveolar airspace by 85%. […] Given the short 5-minute half-life of C5a, the measurement of elevated C5a at 60 minutes is consistent with tissue generated C5a.

free DNA [8] = assay: Free DNA in plasma by PicoGreen assay, two-hit ALI rat model; assay type: in vivo
Experimental: . Plasma samples were incubated with PicoGreen. […] All free DNA measurements for each animal were done in triplicate. Data are means and standard error of the mean. Statistical analysis was performed using bootstrap approach or Welch's ANOVA. * denotes p=0.026, ** denotes p=0.039 and *** denotes p=0.005 compared to 2-hit animals.
Neutrophil extracellular traps (NETs) released from activated neutrophils have been previously shown to play a pathogenic role in a variety of autoimmune, metabolic, and inflammatory diseases. […] . […] .

LFA-1 = LFA-1 (Homo sapiens, UniProt P05107+P20701); assay: ELISA-type plate binding assay, LFA-1
LFA-1, sequence (P20701 26-1170): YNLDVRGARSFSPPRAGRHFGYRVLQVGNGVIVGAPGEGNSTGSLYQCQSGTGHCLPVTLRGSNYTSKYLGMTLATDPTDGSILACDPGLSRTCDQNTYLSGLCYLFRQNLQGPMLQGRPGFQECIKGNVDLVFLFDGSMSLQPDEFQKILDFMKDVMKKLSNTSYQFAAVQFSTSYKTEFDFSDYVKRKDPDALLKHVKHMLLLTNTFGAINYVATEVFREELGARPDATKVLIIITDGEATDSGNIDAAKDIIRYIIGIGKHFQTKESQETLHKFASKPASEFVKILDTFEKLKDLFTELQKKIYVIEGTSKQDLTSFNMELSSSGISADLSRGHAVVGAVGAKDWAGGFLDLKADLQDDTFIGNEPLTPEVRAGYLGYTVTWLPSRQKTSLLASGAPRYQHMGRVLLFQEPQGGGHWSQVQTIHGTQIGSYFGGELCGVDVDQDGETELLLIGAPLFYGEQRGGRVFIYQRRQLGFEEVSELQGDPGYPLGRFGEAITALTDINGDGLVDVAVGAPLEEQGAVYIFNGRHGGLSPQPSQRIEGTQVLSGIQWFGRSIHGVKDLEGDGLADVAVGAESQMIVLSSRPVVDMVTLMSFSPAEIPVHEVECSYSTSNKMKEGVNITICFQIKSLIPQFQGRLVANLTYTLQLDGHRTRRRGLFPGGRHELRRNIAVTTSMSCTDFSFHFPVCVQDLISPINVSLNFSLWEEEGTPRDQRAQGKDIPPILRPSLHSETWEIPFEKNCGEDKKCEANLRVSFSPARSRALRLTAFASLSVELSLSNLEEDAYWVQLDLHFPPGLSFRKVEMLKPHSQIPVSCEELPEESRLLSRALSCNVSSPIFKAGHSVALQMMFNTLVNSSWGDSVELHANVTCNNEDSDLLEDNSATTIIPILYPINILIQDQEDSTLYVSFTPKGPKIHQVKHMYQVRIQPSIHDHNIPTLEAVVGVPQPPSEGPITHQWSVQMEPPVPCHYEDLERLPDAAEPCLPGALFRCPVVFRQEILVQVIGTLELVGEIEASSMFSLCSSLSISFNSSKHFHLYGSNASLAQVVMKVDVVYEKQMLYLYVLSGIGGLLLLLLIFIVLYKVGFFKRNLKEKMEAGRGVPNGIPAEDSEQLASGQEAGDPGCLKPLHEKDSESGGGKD
LFA-1, sequence (P05107 23-769): as the sequence (P05107 23-769, other chains not shown) above
Experimental: as §1, §2

ICAM-5 = ICAM-5 (Homo sapiens, UniProt Q9UMF0); assay: ELISA-type plate binding assay, ICAM-5; conditions: buffer
ICAM-5, sequence (Q9UMF0 32-924): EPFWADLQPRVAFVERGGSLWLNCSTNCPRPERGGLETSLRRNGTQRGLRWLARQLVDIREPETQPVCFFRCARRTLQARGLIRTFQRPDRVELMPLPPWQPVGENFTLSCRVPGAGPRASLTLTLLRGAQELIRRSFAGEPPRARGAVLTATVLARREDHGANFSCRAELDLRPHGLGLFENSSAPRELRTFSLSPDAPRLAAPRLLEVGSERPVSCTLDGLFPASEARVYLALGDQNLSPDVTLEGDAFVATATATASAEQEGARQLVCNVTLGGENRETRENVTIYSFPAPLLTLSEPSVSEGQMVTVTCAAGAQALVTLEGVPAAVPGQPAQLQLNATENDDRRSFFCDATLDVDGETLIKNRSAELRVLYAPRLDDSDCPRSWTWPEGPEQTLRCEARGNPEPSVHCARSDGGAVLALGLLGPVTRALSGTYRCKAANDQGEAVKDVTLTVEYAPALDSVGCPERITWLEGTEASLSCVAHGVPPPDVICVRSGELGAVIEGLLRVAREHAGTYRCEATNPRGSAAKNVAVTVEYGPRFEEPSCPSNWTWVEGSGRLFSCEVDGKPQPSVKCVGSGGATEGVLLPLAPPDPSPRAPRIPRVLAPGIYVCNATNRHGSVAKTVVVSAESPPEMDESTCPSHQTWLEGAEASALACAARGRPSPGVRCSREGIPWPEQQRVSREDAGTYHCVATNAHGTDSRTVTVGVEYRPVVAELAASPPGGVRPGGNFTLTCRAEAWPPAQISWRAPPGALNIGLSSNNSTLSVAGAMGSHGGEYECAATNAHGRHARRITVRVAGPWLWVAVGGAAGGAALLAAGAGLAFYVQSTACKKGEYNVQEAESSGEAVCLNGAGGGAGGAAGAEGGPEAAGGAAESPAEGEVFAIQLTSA

Compound: CC[C@H](C)[C@H](N)C(=O)N[C@@H](C)C(=O)N[C@@H](CC(C)C)C(=O)N[C@H](C(=O)N[C@@H](CC(C)C)C(=O)N[C@@H](CCC(=O)O)C(=O)N1CCC[C@H]1C(=O)N[C@H](C(=O)N[C@@H](CS)C(=O)N[C@@H](CS)C(=O)N[C@@H](CCC(N)=O)C(=O)N[C@@H](CCC(=O)O)C(=O)N[C@@H](CCCNC(=N)N)C(=O)N[C@@H](C)C(=O)N[C@@H](C)C(=O)NCCOCCOCCOCCOCCOCCOCCOCCOCCOCCOCCOCCOCCOCCOCCOCCOCCOCCOCCOCCOCCOCCOCCOCCOCCC(=O)O)[C@@H](C)CC)[C@@H](C)CC [RLS-0071]
- angiogenesis (sprouting and tube formation) [1]: dose-dependent reduction in angiogenesis
- RLS-0071 level in plasma after 24 hours [2]: undetectable
- DAB staining of retinal tissue [3]: significant DAB signal
- MPO levels in the BALF (MPO; prophylactic 160 mg/kg IV, p=0.12): reduction in MPO levels that did not reach statistical significance
- MPO levels in the BALF (MPO; rescue 160 mg/kg IV, P=0.05): significant reduction in MPO levels
- inhibition of mCH50 (mCH50): did not inhibit mCH50
- binding to ICAM-1 (ICAM-1/CD54; 1% gelatin/PBS buffer): bound endothelial receptor ICAM-1
- binding to ICAM-1 (ICAM-1/CD54; in human plasma): bound dose-dependently
- binding to neutrophil cell surface (immunofluorescence) (human neutrophils): fluorescence signal demonstrating direct binding of the peptide to the cell surface
- inhibition of intravascular hemolysis (free hemoglobin in plasma) [4]: no inhibition of classical complement pathway mediated hemolysis
- inhibition of VEGF binding to VEGFR-2 and intracellular signaling (luminescence) [5]: dose-dependent inhibition of intracellular signaling
- free DNA in the BALF (free DNA [6]): a decrease in free DNA was observed
- angiogenesis (sprouting and tube formation) [7]: same results
- binding to MAC-1 (MAC-1/CR3): but not MAC-1
- stability in diluted dose solution in water (6-day storage at -20 °C freezer, M2768 detected): not stable
- stability in solutions, rat urine, and/or rat plasma (decomposes to M2768 by dehydrogenation): not stable
- stability in rat plasma and urine (spiked into control blank rat plasma and pre-dose urine, or decomposition during sample processing): not stable in rat plasma/urine
- binding to MPO (MPO (myeloperoxidase)): bound PA-dPEG24 in a dose-dependent manner
- decrease in C5a generation in the tissues (C5a; 10 mg/kg IV): 50%
- C5a level in blood (C5a; all rescue doses 40 mg/kg (0.5-180 minutes), 1-hour time point, vs 2-hit only animals): significantly reduced levels of C5a
- C5a level in blood (C5a; prophylactic 10, 40 and 160 mg/kg, 5-minute time point, p<0.001 each dose): significant reduction of C5a
- C5a level in blood (C5a; prophylactic doses, 1-hour time point, 10 mg/kg reaching significance (p=0.002)): reduction of C5a at the 1-hour time points
- C5a level in blood (C5a; rescue 40 mg/kg at 0.5, 60, 90 and 120 minutes (not 180 minutes), 5-minute time point): significantly decreased levels of C5a
- free DNA level in plasma (free DNA [8]; prophylactic 10, 40 and 160 mg/kg, 4 hours after transfusion, 160 mg/kg significant (p=0.026)): reduced levels of free DNA
- free DNA level in plasma (free DNA [8]; rescue 40 mg/kg up to three hours after 2-hit injury, 120 and 180 minutes significant (p=0.039, p=0.005)): reduced levels of free DNA
- binding to LFA-1 (LFA-1; 1% gelatin/PBS buffer): bound dose-dependently
- binding to LFA-1 (LFA-1; in human plasma): bound dose-dependently
- binding to ICAM-5 (ICAM-5): superior binding to ICAM-5
